Data on one compound can be found in patent US9539237B2, “Compositions and methods for drug-sensitization or inhibition of a cancer cell” (The Texas A&M University System, priority 2012, dated 2017).

One assay deals with CRL2631 cells. Briefly: Collagen invasion 3D assay, CRL2631 cells. Type of assay: cell-based, human. As to conditions: 10 uM Rifabutin in collagen matrix, 24 hours. How it is done: The effects of rifabutin on cell invasion was assessed in a collagen invasion 3D assay. Increased interest in the use of 3D culture systems has been motivated by accumulating evidence that 3D models better reflect the microenvironment of tumors and metastases and more accurately predict therapeutic response in vivo compared with conventional 2D assays. A collagen invasion 3D assay allows the rapid and quantitative assessment of invasiveness and a means to screen for drugs which alter the invasive phenotype of tumor cells.
The CHOP-resistant G3 cell line is much more invasive in a collage invasion 3D assay than its CHOP-sensitive parent cell line (CRL2631). Collagen matrices (1 mg/ml) were prepared as previously described in Su. S. C., et al., Molecular profile of endothelial invasion of three-dimensional collagen matrices: insights into angiogenic sprout induction in wound healing. Am. J. Physiol. […] Cell invasion density was quantified by counting fixed cultures under transmitted light using an Olympus CK2 inverted microscope equipped with eyepieces displaying a 10×10 ocular grid. For each condition, four random fields were selected and the number of invading cells per high power field (HPF) was counted manually at 10× magnification, corresponding to 1 mm^2 area. […]

The test system of another assay is Akt. In words: Effect on Akt. Type of assay: cell-based. An excerpt:
Although some drug-sensitization or cancer cell inhibition effects may be mediated by the ROS pathway, compositions and methods of the present disclosure may act via other cellular pathways alternatively to or in addition to the Akt/14-3-3ζ/ETC/ROS network. This may be particularly true with respect to drug-sensitization to chemotherapeutics that operate in a different manner than CHOP. For example, ROS may affect the mitochondrial-directed Bcl-2 apoptosis pathway as well. […] Accordingly, it appears likely that an initial ROS induction event may occur, followed by a secondary downstream effect downregulating Akt. In CHOP-resistant cells, Akt is constitutively active thereby increasing Complex I activity resulting in decreases in ROS. Induction of ROS by compositions and methods of the present disclosure will further promote drug sensitivity in the resistant cancer cell by downregulating the Akt pathway.

Take `CO[C@H]1/C=C/O[C@@]2(C)Oc3c(C)c(O)c4c(c3C2=O)C2=NC3(CCN(CC(C)C)CC3)NC2=C(NC(=O)/C(C)=C\C=C\[C@H](C)[C@H](O)[C@@H](C)[C@@H](O)[C@@H](C)[C@H](OC(C)=O)[C@@H]1C)C4=O` [Rifabutin, rifabutin]: the “Reduction of the amount of invasion” value in the assay on CRL2631 cells is given as “Less of this effect”. In the assay with Akt, the “Time for the effect on Akt” value is “at least 18 hours”.
